The values that follow come from ChEMBL document CHEMBL1201862, “PubChem BioAssay data set” (2004).

Among the test systems are K562; A498; OVCAR-8; MDA-MB-435; SK-MEL-2; SF-539; HT-29; ACHN; HCC 2998; SF-295; NCI/ADR-RES; MDA-N; 786-0; KM12; T47D; DU-145; MDA-MB-231; SF-268; SNB-75; NCI-H522.
Holding throughout (experiment): NCI-60 cell line screen, 48 h

Structures are written as SMILES.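 Test compounds were applied to cells in 96-well plates for 48 hours at 5 doses. GI50: concentration for 50% inhibition of growth.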 The source made the active and inactive calls. No stated cut-off is given here; in the data, active = GI50 up to about 1.1 µM and inactive = higher.

Turning to `Cc1cc(-c2cscn2)c(O)c([N+](=O)[O-])c1`, the GI50 in the experiment with K562 is 34.2 µM (inactive); in the experiment on A498, 28.7 µM (inactive); in the experiment with OVCAR-8, 48.3 µM (inactive); in the experiment on MDA-MB-435, 74.3 µM (inactive); in the experiment with SK-MEL-2, 85.1 µM (inactive); in the experiment on SF-539, 56 µM (inactive). The GI50 with HT-29 was 89.3 µM (inactive); with ACHN, 37.2 µM (inactive); with HCC 2998, 81.3 µM (inactive); in the experiment with SF-295, 0.906 µM (active); with NCI/ADR-RES, 46.5 µM (inactive); in the experiment on MDA-N it was 74.3 µM (inactive). In addition, in the experiment on 786-0, the GI50 was 60.8 µM (inactive).
Turning to `CC(C)(C)/N=C1\C(=O)C2(C)CCC1C2(C)C` (centres undefined), the GI50 in the experiment with K562 is > 100 µM (inactive); in the experiment on KM12 it was > 100 µM (inactive); with A498, 16.4 µM (inactive); with OVCAR-8 it was > 100 µM (inactive); in the experiment on T47D, > 100 µM (inactive); in the experiment on DU-145, > 100 µM (inactive). In addition, the GI50 in the experiment on MDA-MB-435, in the experiment on SK-MEL-2, with SF-539, with HT-29, with ACHN and with HCC 2998 was > 100 µM (inactive) each time. The GI50 in the experiment on SF-295, with NCI/ADR-RES, in the experiment with MDA-MB-231, in the experiment with SF-268 and with 786-0 was > 100 µM (inactive) each time.
Regarding `CCOC(=O)c1ccc2c(c1)nc1n2C(c2c(F)cccc2F)SC1` (centres undefined), the GI50 was 29.1 µM (inactive) in the experiment with K562; 17.1 µM (inactive) with KM12; 62.5 µM (inactive) in the experiment on SNB-75; > 100 µM (inactive) with A498; 21.6 µM (inactive) in the experiment on OVCAR-8; 12.8 µM (inactive) in the experiment with T47D. In addition, the GI50 in the experiment on DU-145 was 30.6 µM (inactive); with MDA-MB-435, 30.6 µM (inactive); with SK-MEL-2, 15.2 µM (inactive); in the experiment on SF-539, 21.4 µM (inactive); in the experiment with HT-29 it was 19 µM (inactive); with ACHN, 18.3 µM (inactive). For the same molecule, the GI50 in the experiment with HCC 2998 is 35.8 µM (inactive); in the experiment on SF-295, 21.5 µM (inactive); in the experiment on NCI/ADR-RES it was 18.8 µM (inactive); in the experiment with MDA-MB-231, > 100 µM (inactive); with SF-268 it was 32.8 µM (inactive); in the experiment with 786-0, 23.4 µM (inactive).
For the molecule `C/C(=N\N=C(/S)SCc1ccccc1)c1ccccn1`, the GI50 is < 0.01 µM (active) in the experiment with K562; 0.266 µM (active) with KM12; 2.92 µM (inactive) in the experiment with SNB-75; 1.41 µM (inactive) in the experiment on A498; < 0.01 µM (active) in the experiment with OVCAR-8; 1.54 µM (inactive) with DU-145. Moreover, the GI50 with NCI-H522 is 0.311 µM (active); in the experiment on MDA-MB-435 it was 1.02 µM (active); with SK-MEL-2, 1.27 µM (inactive); in the experiment on SF-539 it was 0.303 µM (active); in the experiment with HT-29, < 0.01 µM (active); in the experiment on ACHN, < 0.01 µM (active). Further, the GI50 in the experiment on HCC 2998 is 0.0476 µM (active); in the experiment on SF-295, 0.514 µM (active); in the experiment with NCI/ADR-RES it was < 0.01 µM (active); in the experiment with MDA-MB-231, < 0.01 µM (active); in the experiment on MDA-N, 0.971 µM (active); with SF-268, 0.184 µM (active). In addition, the GI50 in the experiment with 786-0 is < 0.01 µM (active).
For `O=C(NCCN1CCOCC1)c1cn2c(ccc3sc4ccccc4c(=O)c32)n1`, the GI50 in the experiment on K562 is 9.86 µM (inactive); with KM12, > 100 µM (inactive); in the experiment with SNB-75, 24.8 µM (inactive); in the experiment with A498, 17.3 µM (inactive); with OVCAR-8, > 100 µM (inactive); with DU-145, > 100 µM (inactive). For the same molecule, the GI50 with NCI-H522 was 10.7 µM (inactive); with MDA-MB-435, 16.4 µM (inactive); in the experiment on SF-539 it was 45.3 µM (inactive); in the experiment on HT-29 it was 6.56 µM (inactive); in the experiment with ACHN, 5.36 µM (inactive); in the experiment with HCC 2998 it was 10.1 µM (inactive). Moreover, the GI50 is 11 µM (inactive) with SF-295; 20.6 µM (inactive) with NCI/ADR-RES; 5.35 µM (inactive) in the experiment on MDA-MB-231; 28.3 µM (inactive) in the experiment with MDA-N; 12.3 µM (inactive) with SF-268; 13.6 µM (inactive) in the experiment with 786-0.
For the molecule `Nc1cc(OCC2CCCCC2)nc(N)n1`, the GI50 was > 100 µM (inactive) in the experiment with K562; > 100 µM (inactive) in the experiment on KM12; 61.2 µM (inactive) in the experiment on SNB-75; > 100 µM (inactive) in the experiment on OVCAR-8; > 100 µM (inactive) with DU-145; > 100 µM (inactive) in the experiment on NCI-H522. Besides, the GI50 in the experiment with MDA-MB-435, in the experiment on SK-MEL-2, in the experiment with SF-539, in the experiment with HT-29, in the experiment with ACHN and in the experiment with HCC 2998 was > 100 µM (inactive) each time. The GI50 with SF-295, in the experiment on NCI/ADR-RES, in the experiment on MDA-MB-231, in the experiment with MDA-N, in the experiment with SF-268 and in the experiment with 786-0 was > 100 µM (inactive) each time.
For the molecule `O=C(CNc1ccc(Cl)cc1Cl)NC1C=Cc2ccc(S(=O)(=O)Nc3ccc(Cl)cc3Cl)cc2C1=O` (centres undefined), the GI50 with K562, in the experiment on KM12, in the experiment with SNB-75, in the experiment with OVCAR-8, in the experiment with DU-145 and in the experiment on NCI-H522 was > 100 µM (inactive) each time. Further, the GI50 in the experiment on MDA-MB-435, in the experiment with SK-MEL-2, with SF-539, in the experiment on HT-29, with ACHN and in the experiment with HCC 2998 was > 100 µM (inactive) each time. For the same molecule, the GI50 in the experiment on SF-295, in the experiment on NCI/ADR-RES, in the experiment with MDA-MB-231, with MDA-N, in the experiment with SF-268 and with 786-0 was > 100 µM (inactive) each time.
For `O=Cc1ccc2[nH]c(=O)oc2c1`, the GI50 with K562, in the experiment with KM12, with A498, in the experiment on OVCAR-8, in the experiment with DU-145 and with MDA-MB-435 was > 100 µM (inactive) each time. Moreover, the GI50 in the experiment with SK-MEL-2, with SF-539, in the experiment on HT-29, with ACHN, in the experiment with SF-295 and in the experiment on NCI/ADR-RES was > 100 µM (inactive) throughout. Also, the GI50 in the experiment on MDA-MB-231, with MDA-N, in the experiment with SF-268 and in the experiment with 786-0 was > 100 µM (inactive) throughout.
Regarding `CC1=C(N2CC2)C(=O)c2ccccc2C1=O`, the GI50 is 0.783 µM (active) in the experiment on K562; 1.13 µM (inactive) in the experiment on KM12; 0.462 µM (active) with SNB-75; 0.506 µM (active) with OVCAR-8; 13.1 µM (inactive) in the experiment with T47D; 0.116 µM (active) in the experiment with DU-145. Moreover, the GI50 in the experiment with NCI-H522 was 0.444 µM (active); in the experiment on MDA-MB-435 it was 1.51 µM (inactive); in the experiment on SK-MEL-2, 1.54 µM (inactive); in the experiment with SF-539, 1.69 µM (inactive); with HT-29, 0.394 µM (active); with ACHN, 0.257 µM (active). Moreover, the GI50 was 0.618 µM (active) in the experiment on SF-295; 1.06 µM (active) in the experiment on NCI/ADR-RES; 13.8 µM (inactive) in the experiment with MDA-MB-231; 0.359 µM (active) in the experiment with SF-268; 0.871 µM (active) in the experiment on 786-0.
